# From US9833431B2, “Pharmaceutical combinations for the treatment of cancer” (Pitney Pharmaceuticals Pty Limited, priority 2013, dated 2017)
# Experiments:
# [1] = tested on: MDA-MB-231; test: SRB cytotoxicity assay, MDA-MB-231 cells; assay type: cell-based; details: MDA-MB-231, malignant, breast
# Procedure: (§1) All cell lines described herein were purchased from ATCC. […] Control cultures were treated with ethanol alone.
# [2] = tested on: AsPC1; test: SRB cytotoxicity assay, AsPC1 cells; assay type: cell-based, human; details: 72 h
# Procedure: as §1
# [3] = tested on: T47-D; test: SRB cytotoxicity assay, T47-D cells; assay type: cell-based; details: Homo sapiens, T47D, malignant, breast, 72 h
# Procedure: as §1
# [4] = tested on: HT-1080 (Fibrosarcoma); test: SRB cytotoxicity assay, HT-1080 cells; assay type: cell-based
# Procedure: as §1
# [5] = tested on: 3T3 (fibroblast); test: SRB cytotoxicity assay, 3T3 cells; assay type: cell-based; details: immortalised, mesenchymal, 72 h
# Procedure: as §1
# [6] = tested on: SKOV-3; test: SRB cytotoxicity assay, SKOV-3 cells; assay type: cell-based; details: Homo sapiens, SK-OV-3, SKOV-3, malignant, ovarian, 72 h
# Procedure: as §1
# [7] = tested on: DU-145; test: SRB cytotoxicity assay, DU-145 cells; assay type: cell-based; details: Homo sapiens, DU-145, malignant, prostatic, 72 h
# Procedure: as §1
# [8] = tested on: MCF-7; test: SRB cytotoxicity assay, MCF-7 cells; assay type: cell-based; details: Homo sapiens, MCF7, 72 h, MCF-7, malignant, breast
# Procedure: as §1
compound,measurement,setting,value
"C[C@](C#N)(COc1cc(C#N)ccc1C(F)(F)F)NC(=O)c1ccc(SC(F)(F)F)cc1 [MPL, N-[(1S)-1-cyano-2-(5-cyano-2-trifluoromethyl-phenoxy)-1-methyl-ethyl]-4-trifluoromethylsulfanyl-benzamide]",IC50,"[1]; Homo sapiens, MDA-MB-231, 72 h",23.8 µM
same,IC50,[1]; 72 h,25.8 ± 0.2 µM
same,"Mpl Alone, Mpl (x/X) Inhibition","[2]; AsPC-1 Pancreatoma, 5 μM MPL, x=events, X=experiments",1/2
same,IC50,"[2]; Homo sapiens, AsPC1, malignant, pancreatic, SRB",7.2 ± 0.3 µM
same,IC50,[3],5.3 µM
same,"Mpl Alone, Mpl (x/X) Inhibition","[4]; HT180 Fibrosarcoma, 5 or 10 μM MPL, 72 h, x=events, X=experiments",(1/1)
same,IC50,"[4]; Homo sapiens, HT-1080 (Fibrosarcoma), malignant, mesenchymal, SRB, 72 h",17.2 µM
same,EC50,"[4]; Homo sapiens, HT-1080 cells",17.2 µM
same,IC50,[5],12.4 ± 0.4 µM
same,IC50,[6],31.2 ± 0.8 µM
same,IC50,[7],23 µM
same,IC50,[8],15.5 µM
